Assay [1] concerns SOD1. Nature of the assay: Western blot of SOD1 amount in human diploid fibroblast. The format is cell-based. As to conditions: various concentrations of DDS, FIG. 25B. Here is the method: Trolox that is well known as a water-soluble vitamin E was used as a positive control.
The isolated sample was transferred to a nitrocellulose and analyzed through Western Blot using MS601 (Total OXPHOS Complexes Detection Kit, MitoSciences, containing antibodies against SDH30 subunit of complex II (5 μg/ml), Core2 subunit of complex III (0.2 μg/ml), COXII subunit of complex IV (2 μg/ml), and subunit α of F1-ATPase of complex V (0.2 μg/ml)), PCKpan-p, PCKα/β-p, PKCδ-p (Phospho-PKC antibody Sampler Kit, Cell Signaling Technology), PKC α, PCKβ, PKCδ (Life Technologies), β-Actin (Sigma), and the like. The measurement was performed by using a horseradish […] secondary antibodies (Zymed) and ECL (Pierce). The results were shown through visualizing by using Autoradiographic film (Image Reader, LAS-3000Fujifilm, Japan).
For orientation: A western blot detects proteins with antibodies after separation by electrophoresis.

Assay [2] relates to membrane potential of mitochondria. Nature of the assay: Membrane potential of mitochondria, DiOC6 assay. It counts as cell-based, human. As to conditions: pretreated with DDS (3 hours) or DPI (30 minutes), then 1 mM PQ 24 hours; FIG. 29B. Here is the method: The protein amount of mitochondria constituent complex was measured by using Western Blot using Complex I (20 kDa ND6 subunit), Complex II (30 kDa FeS, non-heme iron protein, SDHB), Complex III (47 kDa core protein 2), Complex IV (18 kDa subunit IV), Complex V (55 kDa subunit a ATP synthase), and the like. […] The membrane potential (Δψm) of mitochondria used DiOC6. […] Since then, the above fibroblast was treated with 40 nM of DiOC6 for 15 minutes. The results were measured by using Cary Eclipse Fluorescence Spectrophotometer (Varian, Calif., USA) and the excitation wavelength and emission wavelength were measured at 480 nm and 520 nm, respectively.
The change of membrane potential (Δψm) of mitochondria was measured by using a cationic dye, DiOC6 that is a specific fluorescent material for mitochondria. An aspect of the change was measured by using Fluorescence Spectrophotometer. The cell was cultured in 40 nM DiQC6 for 15 minutes and then the fluorescent material that was left was removed by using PBS. The analysis was performed by using Cary Eclipse fluorescence spectrophotometer (Varian, Calif., USA), and then the excitation wavelength was measured at 480 nm, and the emission wavelength was measured at 520 nm.

Assay [3] deals with C. elegans. Nature of the assay: Lifespan of C. elegans fed on E. coli cultured with dapsone. It counts as in vivo, Caenorhabditis elegans. Also on record: Mean lifespan (Mean ± SE): unit not given beside the values. Here is the method: In order to identify the effect of dapsone on the extending of lifespan, the experiment was performed in the following order. At this time, since dapsone is not a water-soluble material, E. coli was cultured in the medium including dapsone and then was used as a feed for C. elegans. […] generation, and the experiment was performed as follows under the condition of 20° C. in order to provide the optimal growth environment: 1) A parent C. elegans of L4 stage was transferred to the medium containing dapsone and PABA, and the progeny of first generation was transferred to the new medium after four days to lay an egg for 4 to 5 hours. […] C. elegans, which […], was excluded from the statistical analysis. […] The significant difference of statistical average lifespan used Log-rank test.

Assay [4] relates to mitochondria. Nature of the assay: Mitochondria structure staining with MitoTracker Red. The format is cell-based, human. As to conditions: pretreated with DDS or DPI, then 1 mM PQ 24 hours; FIG. 30. Here is the method: The first photograph indicates the stained mitochondria of the non-treated human diploid fibroblast as a control, the second photograph indicates the stained mitochondria of the PQ-treated human diploid fibroblast, the third photograph indicates the stained mitochondria of the human diploid fibroblast that was pretreated with DDS and then was treated with PQ, and the final photograph indicates the stained mitochondria of the human diploid fibroblast that was treated with DPI and PQ together (by using Confocal process). The values of (A, B, C and D: ×4000) is means±SEM (n=3), # is p<0.005 relative CC; and * is p<0.005 relative C.
The human diploid fibroblasts were cultured at 24-well plate. After the above experiment materials, i.e., the human diploid fibroblasts, were pretreated and then were treated with PQ for 24 hours, the above cells were treated with MitoTracker Red CMXRos (50 nM), which is a staining material for mitochondria, at 37° C. for 30 minutes. The dye is a marker of function for marking mitochondria through marking a transmembrane potential of mitochondria in a cell. After culturing, the cells were washed with PBS and then fixed with 4% of paraformaldehyde at 4° C. for overnight. […] After washing, the cells were covered with a cover glass and visualized through a fluorescence microscope.

For assay [5], the system named is C. elegans. Nature of the assay: Oxygen uptake rate of C. elegans (Clark-type oxygen electrode). The format is in vivo. As to conditions: C. elegans treated with DDS; FIG. 10. Here is the method: The oxygen uptake rate was measured by using the method disclosed in the theses (50, 51) using Clark-type oxygen electrode (782 Oxygen Meter, Strathkelvin Instruments, Glasgow, UK). […] Approximately 1500 C. elegans in 200 uL of S-basal buffer were added to Mitocell chamber with Clark-type oxygen electrode to measure the oxygen uptake rate for several minuets. A sample was carefully taken from the chamber and then twice homogenized at 5000 rpm for 20 seconds by using Precellys24 homogenizer with glass bead. The sample was centrifuged at 15000 g for 20 minutes and the protein in the supernatant was quantified by using BCA protein quantification kit.

In assay [6] the test system is human diploid fibroblast. Nature of the assay: Growth suppression of human diploid fibroblast by DDS (data not shown). As to conditions: read-out: DDS concentration that can suppress 50% growth of human diploid fibroblast (1050). It counts as cell-based.
In assay [7] the test system is mitochondria superoxide anion. Nature of the assay: Superoxide anion in mitochondria, MitoSOX Red. It counts as cell-based. As to conditions: human diploid fibroblast; 1 mM PQ 30 minutes; FIG. 24B. Here is the method:
The cell was treated with 1 mM of PQ for 30 minutes, and then was cultured at 37° C. for 15 minutes after adding oxidant-sensitive fluorescent dyes (A) DHE (5 uM, cytosol specific) and (B) MitoSOX (5 uM, mitochondria specific), respectively. For identifying the change of fluorescence, the excitation and emission wavelength of DHE were measured at 515 and 590 nm and MitoSOX was measured at 520 and 580 nm by using a multiwell plate reader. The results were indicated by calculating the results of three experiments as a control rate (%). The statistical significant was expressed as *, # p<0.005; ** p<0.05.
Mitochondria superoxide anion was measured by using the fluorescence material, i.e., MitoSOX Red. […] The cell was twice washed with DPBS and the fluorescence was immediately measured at excitation wavelength 515 nm and emission wavelength 590 nm by using CEFS [Cary Eclipse fluorescence spectrophotometer (Varian, Calif., USA)] machine.

Molecules are shown by their SMILES. Values joined by “and” are separate entries in the source; they are usually repeats but may differ in a detail not shown here. Identical values can stand only once.

Take `Nc1ccc(S(=O)(=O)c2ccc(N)cc2)cc1` [DDS, 4,4′-diaminodiphenylsulfone]: the “amount of SOD1” value in assay [1] is given as “decreases”. Moreover, in assay [2], the “decrease of membrane potential induced by PQ” value is “meaningfully maintained”. Moreover, the “average lifespan and maximum lifespan compared with the control” value in assay [3] (DDS after L4-stage and during the whole life, FIG. 3A, B) is reported as “significantly increased”. Further, the “Mean lifespan (Mean ± SE)” value in assay [3] (strain N2, OP50 + PABA + DDS (2 mM) after L4 stage, Figure 1B, four trials) is 23.04 ± 0.7 and 34.26 ± 0.8 and 23.76 ± 0.6 and 18.87 ± 0.4; in assay [3] (strain N2, OP50 + PABA + DDS (2 mM) in the whole life, Figure 1A, two trials), 23.07 ± 0.5 and 24.31 ± 0.6; in assay [3] (strain N2, OP50 + PABA + DDS, Figure 3F, two trials), 23.72 ± 0.7 and 19.74 ± 0.6; in assay [3] (strain N2, feeding OP50 + 0.5 mM DDS, Figure S7), 22.03 ± 0.6; in assay [3] (strain N2, feeding OP50 + 1 mM DDS, Figure S7), 22.20 ± 0.6; in assay [3] (strain N2, feeding folP + DDS (bacteria lacking folP), Figure S2, three trials), 16.90 ± 0.3 and 17.43 ± 0.4 and 17.87 ± 0.4. Moreover, the “Mean lifespan (Mean ± SE)” value in assay [3] (strain daf-16(cf1038), OP50 + PABA + DDS (2 mM), Figure 2A, two trials) is 15.69 ± 0.5 and 17.40 ± 0.3; in assay [3] (strain pyk-1(ok1754), OP50 + PABA + DDS, Figure 3F, two trials), 21.92 ± 0.8 and 23.37 ± 0.6. The “shape of mitochondria after PQ (MitoTracker)” value in assay [4] is “recovered, partially”. Also, the oxygen uptake rate entry in assay [5] was “meaningfully decreased”. In assay [6], the IC50 is roughly 745 µM. For the same molecule, the “production of superoxide anion in the mitochondria” value in assay [7] is “suppresses”.

Values taken from patent US20110152379A1, “COMPOSITION FOR CONTROL OF AGING AND/OR EXTENSION OF LIFE, CONTAINING DAPSONE AS ACTIVE INGREDIENT” (priority 2008, published 2011).
